Values of other authors in patent US20110195988A1, “Pharmaceutical Composition” (Special Products Limited, priority 2010, published 2011).

Conditions: oral formulations of morphine

CN1CC[C@]23c4c5ccc(O)c4O[C@H]2[C@@H](O)C=C[C@H]3[C@H]1C5 [morphine]
time after administration at which the analgesic effect is observed: around 30 minutes
